Source: patent publication US7074938B2, “Method for the synthesis of soritin compounds” (The Regents of the University of California, priority 2002, dated 2006)
Marks after values point to notes of the source that are not given here.

Columns and labels:
Assay type in all cases: in vivo
[1] = system: test ears of mice; assay: Soritin B coloration and irritation when applied to mouse ear skin
[2] = system: PMA-induced edema of the mouse ear; assay: Inhibition of PMA-induced inflammation (edema) of the mouse ear; conditions: 3 h 20 min, in mg (unit assumed)
Procedure: (§1) The test compound made by the method of the present invention and a known inflammatory agent, phorbol myristate acetate (PMA), are topically applied simultaneously to the left ears of mice. Three hours and 20 minutes following application, the mice are sacrificed. Both left ears and right ears are removed and standard sized bores taken. Edema (inflammation) is measured as the difference in weight between left and right ears. See Van Arman, C. G. (1974) Clin. Pharmacol. Ther. 16:900–904, which is herein incorporated by reference.
as §1, with “Soritin B and” for “The test compound made by the method of the present invention and”, “(PMA), were” for “(PMA), are”, “mice were” for “mice are”, “ears were” for “ears are”, “(inflammation) was” for “(inflammation) is”

[3] = system: RTX-induced edema of the mouse ear; assay: Inhibition of resiniferatoxin (RTX)-induced inflammation (edema) of the mouse ear; conditions: 30 min
Procedure: Induction of mouse ear edema can be conducted according to known methods. See Inoue, 1-f., N. Nagata, Y. Koshffiara (1993), which is herein incorporated by reference. Soritin compounds to be tested for anti-neurogenic inflammatory activity are topically applied in acetone to the ears of mice in a solution that includes the edema-causing irritant resiniferatoxin (RTX). RTX alone (0.1 μg/ear) or in combination with various dilutions of test compound are applied to both sides of the left ears (5 mice per treatment group) and acetone is applied to all right ears. After a 30-minute incubation, the mice are sacrificed, the ears removed, and bores taken and weighed. Edema is measured by subtracting the weight of the right ear (acetone control) from the weight of the left ear (treated). Results are recorded as % decrease (inhibition) or % increase (potentiation) in edema relative to the control group edema.
Soritin B was tested for anti-neurogenic inflammatory activity by topically applying in acetone to the ears of mice in a solution that includes the edema-causing irritant resiniferatoxin (RTX) as provided above. See Inoue, 1-f., N. Nagata, Y. Koshffiara (1993), which is herein incorporated by reference. Specifically, RTX alone (0.1 μg/ear) or in combination with various dilutions of Soritin B was applied to both sides of the left ears (5 mice per treatment group) and acetone was applied to all right ears. After a 30-minute incubation, the mice are sacrificed, the ears removed, and bores taken and weighed. Edema was measured by subtracting the weight of the right ear (acetone control) from the weight of the left ear (treated). Results were recorded as % decrease (inhibition) or % increase (potentiation) in edema relative to the control group edema.

In the case of `COC(=O)C(c1c[nH]c2ccccc12)c1c[nH]c2ccccc12` [Soritin B, bis-(1H-indol-3-yl)-acetic acid methyl ester], the “Redness or swelling after overnight exposure” value ([1]; 50 μg/ear, overnight exposure, compared to controls) is reported as “did not result in any discernable redness or swelling”, the “Coloration on test ears” value ([1]; in acetone alone and in combination with PMA or RTX, from beginning to end of the experiments) is reported as “did not exhibit any discernable coloration” and the “Mean edema (difference in weight between left and right ear bores)” value ([2]; 3.12 μg/ear topical with PMA 2.0 μg/ear) is reported as 10.0**. For the same molecule, the “Mean edema (difference in weight between left and right ear bores)” value ([2]; 6.25 μg/ear topical with PMA 2.0 μg/ear) was 9.7**, the “Mean edema (difference in weight between left and right ear bores)” value ([2]; 12.5 μg/ear topical with PMA 2.0 μg/ear) was 8.6* and the “Mean edema (difference in weight between left and right ear bores)” value ([2]; 25 μg/ear topical with PMA 2.0 μg/ear) was 5.9*. For the same molecule, the “Mean edema (difference in weight between left and right ear bores)” value ([2]; 50 μg/ear topical with PMA 2.0 μg/ear) was 3.4*, the “Mean edema (weight of left ear minus right ear bores)” value ([3]; 3.12 μg/ear topical in acetone with RTX 0.1 μg/ear) was 9.1 and the “Mean edema (weight of left ear minus right ear bores)” value ([3]; 6.25 μg/ear topical in acetone with RTX 0.1 μg/ear) was 6.5*. The “Mean edema (weight of left ear minus right ear bores)” value ([3]; 12.5 μg/ear topical in acetone with RTX 0.1 μg/ear) was 3.2*, the “Mean edema (weight of left ear minus right ear bores)” value ([3]; 25 μg/ear topical in acetone with RTX 0.1 μg/ear) was 1.7* and the “Mean edema (weight of left ear minus right ear bores)” value ([3]; 50 μg/ear topical in acetone with RTX 0.1 μg/ear) was 1.0*.
